In publication PMC9551036, “A selective and orally bioavailable VHL-recruiting PROTAC achieves SMARCA2 degradation in vivo” (Nature Communications, 2022):
“And” between values parts separate entries of the source, which are not always exact repeats. Identical values can stand only once. Like-named read-outs stand apart in the source and are kept apart here.

Experiments:
SMARCA2^BD = target: T1, SMARCA2^BD (Homo sapiens, UniProt P51531); assay: SPR binding to immobilised SMARCA2 bromodomain
T1 construct: P51531-2, residues 1373-1493 with additional N-terminal SM residues; GST (TEV site) (N, cleaved yes); made in house; host or cells: Escherichia coli BL21(DE3)
T1 sequence (P51531 1373-1493 isoform P51531-2): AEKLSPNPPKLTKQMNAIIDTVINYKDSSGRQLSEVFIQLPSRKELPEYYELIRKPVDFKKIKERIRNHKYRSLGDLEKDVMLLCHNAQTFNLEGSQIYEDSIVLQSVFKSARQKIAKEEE
Protocol: SMARCA4^BD was provided by the Structural Genomics Consortium (SGC), Toronto[32] and SMARCA2^BD and PRM1^BD5 were synthesised by GeneArt then subcloned into pDEST15 vectors (Invitrogen). The VCB complex was expressed and purified as described previously, with the modification that 0.3 mM IPTG was used for induction of expression. […] Both were stored in 20 mM 4-(2-hydroxyethyl)−1-piperazineethanesulfonic acid (HEPES), 150 mM sodium chloride and 1 mM tris(2-carboxyethyl)phosphine (TCEP) pH 7.5. SMARCA2^BD, SMARCA4^BD and PBRM1^BD5 were expressed in Escherichia coli BL21(DE3) as N-terminal GST fusion proteins with a TEV protease cleavage site. Expression and purification of these proteins has been described previously[32],[33]. Starter cultures were grown overnight at 37 °C in 10 mL of Luria-Bertani (LB) medium with ampicillin (100 μg/mL). The starter cultures were diluted (1:100) in Terrific Broth (TB) medium with ampicillin (100 μg/mL) and grown in a shaking incubator at 37 °C to an optical density (OD600) ~1 before the temperature was lowered for induction (to 23 °C for SMARCA2^BD or 18 °C for SMARCA4^BD and PRRM1^BD5). […] Cells were harvested by centrifugation and stored at −80 °C prior to purification. […] The Lysis buffers were as follows: for SMARCA2^BD: 50 mM HEPES, 500 mM sodium chloride, 5% glycerol, 5 mM dithiothreitol (DTT); for SMARCA4^BD: 25 mM HEPES, 0.3 M sodium chloride, 5% glycerol, 10 mM DTT, pH 7.5; for PBRM1^BD5: 25 mM HEPES, 300 mM sodium chloride, 5% glycerol, 10 mM DTT, pH 7.8; in each case supplemented with complete protease inhibitors (Roche). Affinity purification was performed using Glutathione Sepharose 4B (GE Healthcare) in batch mode or on-column. […] For SMARCA2^BD, prior to TEV protease cleavage the eluted GST-tagged BD was first dialysed into desalting buffer (20 mM HEPES, 250 mM sodium chloride, pH 7.0 + 0.5% glycerol). Where TEV cleavage was performed in solution, a second affinity (GST-trap) column purification step was carried out to remove the GST-tag and uncleaved GST-tagged protein. Proteins were further purified by SEC (HiLoad Superdex-75, 16/600) (GE Healthcare) and stored in Storage buffer (for SMARCA2^BD: 20 mM HEPES, 150 mM sodium chloride, pH 7.5; for SMARCA4^BD: 10 mM HEPES, 0.5 M NaCl, 5% glycerol, pH 7.5; for PBRM1^BD5: 20 mM HEPES, 300 mM NaCl, 5 mM DTT, pH 7.8). For AlphaScreen assays, eluted GST-tagged BDs were purified directly by SEC in the respective storage buffers without TEV cleavage. All chromatography purification steps were performed either at room temperature or 4 °C using an ÄKTA FPLC purification system (GE Healthcare) or a plastic Econo-Pac column (Bio-Rad).
SPR data were acquired on Biacore 8K or T200 instruments (Cytiva). Target proteins were immobilised at 25 °C on CM5 chips by amine coupling (EDC/NHS, Cytiva) in HBS-P+ running buffer (pH 7.4), containing 2 mM TCEP. […] The reference surface was subsequently deactivated using 1 M ethanolamine. […] Biotinylated VCB was prepared as previously described[27]: in brief, the complex was mixed 1:1 with EZ-Link NHS–PEG4–biotin (Thermo Scientific) and incubated at room temperature for 1 h. Unreacted NHS-biotin was removed using a PD-10 desalting column (Cytiva) into 20 mM HEPES, pH 7.5, 150 mM sodium chloride and 1 mM DTT. The reference surface was generated by deactivating the EDC/NHS-treated surface with 1 M ethanolamine. All interaction experiments were done at 6 °C in running buffer (20 mM TRIS, pH 8.3, 150 mM potassium chloride, 2 mM magnesium chloride, 2 mM TCEP, 0.005% TWEEN 20, 1% dimethyl sulfoxide). For ternary complex measurements, a sensor chip surface with VCB immobilised was used (preparation as described above). Experiments were run in dual-inject mode with 10 µM SMARCA present during the injection and dissociation phase. Sensorgrams from reference surfaces and blank injections were subtracted from the raw data prior to data analysis using Biacore Insight software.

Microsomal stability = format: in vitro ADME; conditions: for Mic. Stab. Rat QH / Mic. Stab. Rat: rat liver microsomes; for Mic. Stab. Mouse / Mic. Stab. Mouse QH: mouse liver microsomes
Protocol: […] Reactions were terminated by addition of acetonitrile and precipitates separated by centrifugation. Compound concentrations in supernatants were measured by HPLC-MS/MS and clearance was calculated from compound half-lives using the well-stirred liver model.

Caco-2 cell monolayer = assay: Bidirectional permeability measurement in Caco-2 cells; format: in vitro ADME
Protocol: Bidirectional permeability of test compounds across a Caco-2 cell monolayer was measured as described[43] with a modification of preincubation time[44]: Briefly, Caco-2 cells were seeded onto Transwell inserts (#3379, Corning, Wiesbaden, Germany) at a density of 160000 cells/cm^2 and cultured in DMEM (high glucose) containing 10% fetal bovine serum for 14–21 days. Cells were incubated with culture media containing 1 µM test compound for 24 h. […] Samples were taken at different time points for up to 2 h. Test compound in the samples was quantified with LC-MS/MS. To elucidate the role of drug transporter P-gp in the transcellular transport, permeability measurement was performed in the absence and presence of the selective P-gp inhibitor zosuquidar (5 µM final concentration). Apparent permeability coefficients (Papp,AB, Papp,BA) were calculated as follows:1 Papp,AB=Q_AB/C0×s×t 2 Papp,BA=Q_BA/C0×s×t where Q is the amount of compound recovered in the receiver compartment after the incubation time t, C0 the initial compound concentration given to the donor compartment, and s the surface area of the Transwell inserts. Efflux ratio is calculated as the quotient of Papp,BA (mean of duplicate) to Papp,AB (mean of duplicate). […] In addition, Transepithelial electrical resistance (TEER) values were measured for each plate before the permeability assay. All three parameters (efflux of the reference substrates, Papp values of the low permeable compound, and TEER values) were used to ensure the quality of the assays.

[1] = system: VCB: PROTAC: SMARCA4^BD ternary complex; assay: TR-FRET ternary complex affinity and cooperativity, SMARCA4; format: binding, human; conditions: ratio TR-FRET EC50 / TR-FRET EC50 +VCB measured in the same run, SMARCA4BD
[2] = SPR, SMARCA2BD, mean ± SD, read-out: SMARCA2 KD
[3] = SPR, individual replicates, read-out: SMARCA2 KD

| Compound | Kd (SMARCA2^BD; [2]) [nM] | Kd (SMARCA2^BD; [3]) | Mic. Stab. Human QH (Microsomal stability; human liver microsomes) | Mic. Stab. Rat QH (Microsomal stability) | Caco-2 Efflux ratio (Caco-2 cell monolayer; Caco-2) | Caco-2 Pab (Caco-2 cell monolayer; Caco-2, a to b) [cm/s] | Mic. Stab. Human (Microsomal stability; human liver microsomes) [% QH] | Mic. Stab. Mouse (Microsomal stability) [% QH] | Mic. Stab. Mouse QH (Microsomal stability) | Mic. Stab. Rat (Microsomal stability) [% QH] | cooperativity α (SMARCA4BD) [1] | other results |
| --- | --- | --- | --- | --- | --- | --- | --- | --- | --- | --- | --- | --- |
| Nc1cccc2c1c(=O)nc1n(C3CCCC3)c3ccccc3n21 [compound 2] | 1160 ± 421 | 826 nM and 632 nM and 916 nM and 1490 nM and 1420 nM and 1670 nM | 91.040% | 88.170% | 0.5 | 3.7e-05 | – | – | – | – | – | Kd (SMARCA2^BD; read-out: SMARCA2^BD SPR KD): 1160 nM |
| Cc1ncsc1-c1ccc([C@H](CCCCCN2CCC(c3ccc4c(c3)n(C3CCCC3)c3nc(=O)c5c(Br)cccc5n43)CC2)NC(=O)[C@@H]2C[C@@H](O)CN2C(=O)[C@@H](NC(=O)C2(F)CC2)C(C)(C)C)cc1 [compound 11] | – | 148 nM and 144 nM and 140 nM | <24.400 <24.400 <24.400 <24.400% | <23.100 <23.100 <23.100 <23.100 <23.100 <23.100 <23.100 <23.100% | – | – | <24 | <24 | <24.200 <24.200 <24.200 <24.200 <24.200 <24.200 <24.200 <24.200% | <23 | 4.2 ± 0.4 | microsomal stability (Microsomal stability): good microsomal stability; Caco-2 permeability (Caco-2 cell monolayer): improved permeability; efflux ratio (Caco-2 cell monolayer; Caco-2): high efflux ratio; Modified Caco-2 + PGPi (Zosuquidar) Pab (Caco-2 cell monolayer; Modified Caco-2 + PGPi (Zosuquidar)): 11 ± 3 10-6 cm/s; Modified Caco-2 Pab + PGPi (Zosuquidar) (Caco-2 cell monolayer; Modified Caco-2, a to b, + PGPi (Zosuquidar)): 12 ×10⁻⁶ cm/s and 16 ×10⁻⁶ cm/s and 9 ×10⁻⁶ cm/s and 8.7 ×10⁻⁶ cm/s; Modified Caco-2 Pba + PGPi (Zosuquidar) (Caco-2 cell monolayer; Modified Caco-2, b to a, + PGPi (Zosuquidar)): 19 ×10⁻⁶ cm/s |
| CN1CCN(c2nc(=O)c3c(Br)cccc3o2)CC1 [compound 15] | 9000 ± 526 | 8910 nM and 9570 nM and 8530 nM | – | – | – | – | – | – | – | – | – | – |
| CN1CCN(c2nc(=O)c3c(I)cccc3o2)CC1 [compound 16] | 17900 ± 917 | 18100 nM and 16900 nM and 18700 nM | – | – | – | – | – | – | – | – | – | – |
| CN1CCC(c2ccc3c(c2)n(C2CCCC2)c2nc(=O)c4c(Br)cccc4n32)CC1 [compound 3] | 46 ± 5 | 72.2 nM and 83 nM and 78.7 nM and 50.7 nM and 44.6 nM and 41.5 nM | <24.400% | < 23.100% and 27.400% and 28.840% | 0.8 | 2.83e-05 | <24 | 43 ± 10 | 34.400% and 53.600% and 50.410% | 28 ± 1 | – | koff (SMARCA2^BD): 0.09 ± 0.01 s⁻¹; kon (SMARCA2^BD): 1.98e+06 ± 130000 M⁻¹ s⁻¹; Kd (SMARCA2^BD; read-out: SMARCA2^BD SPR KD): 46 nM |
| CN1CCN(c2nc(=O)c3c(Cl)cccc3o2)CC1 [compound 13] | 24500 ± 2170 | 26500 nM and 24900 nM and 22200 nM | – | – | 0.606 and 0.6 | 9.26e-05 | – | – | – | – | – | Caco-2 Pab (Caco-2 cell monolayer; Caco-2): 93 10-6 cm/s |
| Cc1ncsc1-c1ccc(C(CCC(C)CCN2CCC(c3ccc4c(c3)n(C3CCCC3)c3nc(=O)c5c(Br)cccc5n43)CC2)NC(=O)C2CC(O)CN2C(=O)C(NC(=O)C2(F)CC2)C(C)(C)C)cc1 (stereo not drawn) [ACBI2] | 208 ± 39 | 250 nM and 202 nM and 173 nM | <24.400 <24.400 <24.400 <24.400% | <23.100 <23.100 <23.100 <23.100% | – | – | <24 | <24 | <24.200 <24.200 <24.200 <24.200% | <23 | 3.7 ± 0.8 | – |
| Cc1ncsc1-c1ccc([C@H](CC[C@H](C)CCN2CCC(c3ccc4c(c3)n(C3CCCC3)c3nc(=O)c5c(Br)cccc5n43)CC2)NC(=O)[C@@H]2C[C@H](O)CN2C(=O)[C@@H](NC(=O)C2(F)CC2)C(C)(C)C)cc1 [compound 12] | 214 ± 15 | 202 nM and 231 nM and 209 nM | 31.400% | <23.100% | – | – | <24 | <24 | <24.200 NADPH control off limits % | <23 | 0.9 ± 0.1 | Mic. Stab. Human degradation without NADPH (Microsomal stability; human liver microsomes, without NADPH): 60% |
| O=c1nc2n(C3CCCC3)c3ccccc3n2c2cccc(Br)c12 [compound 1] | 1060 ± 258 | 1050 nM and 804 nM and 1320 nM | 87.940% and 88.090% | 87.000% and 86.360% | 0.8 | 3.09e-05 | – | – | 86.850% | – | – | – |
| Cc1ncsc1-c1ccc(CNC(=O)[C@@H]2C[C@H](O)CN2C(=O)[C@@H](NC(=O)C2(F)CC2)C(C)(C)C)c(OCCN2CCC(c3ccc4c(c3)n(C3CCCC3)c3nc(=O)c5c(Br)cccc5n43)CC2)c1 [compound 19] | 64 ± 4 | 68.8 nM and 62.9 nM and 60.9 nM | 81.450% | 27.950% | – | – | 82 | 68 | 67.500% | 28 | 0.9 ± 0.1 | – |
